Our source for the Ki, k2/Ki and Affinity values is ChEMBL document CHEMBL1137960, “Miraziridine A: natures blueprint towards protease class-spanning inhibitors” (Bioorg Med Chem Lett, 2004).

What is called Ki is a measure of affinity in units of concentration, obtained from inhibition or displacement. High values mean weaker binding, low ones tighter binding.

Non-standard residues stand in square brackets, D forms with d. Residues, ends and D or L forms follow the SMILES beside them. ξ: configuration not given here. *: point of attachment. Sta = CC(C)C[C@H](N)[C@@H](O)CC(=O)O; X1 = CC(=O)c1cn(*)c2ccccc12; Isovaleryl = CC(C)CC(=O)*; ξIva = CCC(C)(N)C(=O)O

In experiment [1] the target is Pepsin A (Sus scrofa, UniProt P00791). Kind of experiment: (§1) Inhibitory activity against aspartyl protease pepsin.
The target in experiment [2] is Cathepsin B (Homo sapiens) (UniProt P07858). Kind of experiment: Second order rate constant for cathepsin B.
In experiment [3] the target is Procathepsin L (Homo sapiens) (UniProt P07711). Description: Second order rate constant for cathepsin L.
Experiment [4] has as its target Cathepsin B (Homo sapiens) (UniProt P07858). Kind of experiment: Inhibitory activity against cysteine protease cathepsin B.
Experiment [5] deals with Procathepsin L (Homo sapiens) (UniProt P07711). Description: Inhibitory activity against cysteine protease cathepsin L.
Experiment [6] addresses Pepsin A (Sus scrofa) (UniProt P00791). Described as §1.
The target in experiment [7] is Serine protease 1 (Homo sapiens) (UniProt P07477). Description: Inhibitory activity against serine protease trypsin.
Serine protease 1 (Homo sapiens), sequence (P07477 whole entry): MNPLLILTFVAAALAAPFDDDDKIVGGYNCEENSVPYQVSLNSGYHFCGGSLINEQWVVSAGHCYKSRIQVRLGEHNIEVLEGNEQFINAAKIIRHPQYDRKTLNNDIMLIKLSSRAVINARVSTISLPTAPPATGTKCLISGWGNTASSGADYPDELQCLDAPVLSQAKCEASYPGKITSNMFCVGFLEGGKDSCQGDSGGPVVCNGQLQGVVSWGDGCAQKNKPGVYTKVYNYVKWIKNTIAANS

Pepsin A, sequence (P00791 whole entry): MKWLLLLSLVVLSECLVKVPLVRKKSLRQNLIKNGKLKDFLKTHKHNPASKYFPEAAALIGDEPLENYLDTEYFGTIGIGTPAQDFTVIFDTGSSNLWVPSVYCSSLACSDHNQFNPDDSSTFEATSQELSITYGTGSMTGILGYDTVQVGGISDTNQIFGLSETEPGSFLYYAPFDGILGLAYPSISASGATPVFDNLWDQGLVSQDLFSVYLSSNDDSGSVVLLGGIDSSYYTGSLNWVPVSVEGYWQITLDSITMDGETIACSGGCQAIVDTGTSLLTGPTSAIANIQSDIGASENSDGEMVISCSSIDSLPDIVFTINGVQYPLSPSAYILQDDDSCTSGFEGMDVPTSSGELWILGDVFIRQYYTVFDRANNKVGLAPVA
Procathepsin L (Homo sapiens), sequence (P07711 114-333 limits assumed): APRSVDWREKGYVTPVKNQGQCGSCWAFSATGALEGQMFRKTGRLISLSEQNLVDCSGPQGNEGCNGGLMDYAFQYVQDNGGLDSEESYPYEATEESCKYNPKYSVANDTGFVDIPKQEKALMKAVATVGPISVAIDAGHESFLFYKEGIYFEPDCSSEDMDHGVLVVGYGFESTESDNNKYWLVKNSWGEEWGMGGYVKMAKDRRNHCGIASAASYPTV
Pepsin A (Sus scrofa), sequence (P00791 60-385 limits assumed): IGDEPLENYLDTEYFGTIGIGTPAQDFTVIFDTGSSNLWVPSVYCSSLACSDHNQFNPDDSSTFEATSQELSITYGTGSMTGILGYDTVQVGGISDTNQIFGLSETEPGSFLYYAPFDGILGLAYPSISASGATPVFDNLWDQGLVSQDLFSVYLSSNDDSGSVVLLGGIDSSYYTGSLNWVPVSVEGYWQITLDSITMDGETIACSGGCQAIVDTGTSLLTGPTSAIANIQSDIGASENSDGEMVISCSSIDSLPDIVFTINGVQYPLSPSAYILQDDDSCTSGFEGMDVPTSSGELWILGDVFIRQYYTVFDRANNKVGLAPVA

`CCC(C)(N)C(=O)N[C@H](C(=O)N[C@@H](CC(C)C)[C@@H](O)CC(=O)N[C@@H](C)C(=O)n1cc(C(C)=O)c2ccccc21)C(C)C` (some centres undefined) (H-[ξIva]V[Sta]A-X1) gave a Ki in experiment [1] of 3 nM. This lies in the single-digit nanomolar range.

As for `CC(C)CCNC(=O)[C@H](CC(C)C)NC(=O)[C@@H]1N[C@H]1C(=O)O`, the k2/Ki was 17000 M⁻¹ s⁻¹ in experiment [2] and 120000 M⁻¹ s⁻¹ in experiment [3].

As for `CC(C)CC(=O)N[C@H](C(=O)N[C@H](C(=O)N[C@@H](CC(C)C)[C@@H](O)CC(=O)N[C@@H](C)C(=O)N[C@@H](CC(C)C)[C@@H](O)CC(=O)O)C(C)C)C(C)C` (Isovaleryl-VV[Sta]A[Sta]-OH), the inhibition constant (Ki) in experiment [1] worked out at 0.046 nM.

For the compound `CC[C@H](NC(=O)C[C@H](O)[C@H](CC(C)C)NC(=O)[C@H](CC(C)C)NC(=O)[C@@H]1N[C@H]1C(=O)O)C(=O)N[C@H](/C=C/C(=O)O)CCCN=C(N)N` [MIRAZIRIDINE A], the Affinity was 15000 M⁻¹ s⁻¹ in experiment [4], 1e+06 M⁻¹ s⁻¹ in experiment [5], 14 nM in experiment [6] and 60 µM in experiment [7]. In experiment [1], this compound came in with a Ki of 14 nM.
